Data as given in patent publication US20040110771A1, “7-(r)-aminotriazolopyrimidines, the production thereof and use of the same for combatting phytopathogenic fungi” (priority 2000, published 2004).

Columns and labels:
Type in all cases: in vivo
[1] = test system: Puccinia recondita; assay: Curative activity against brown rust of wheat caused by Puccinia recondita; conditions: curative spray 24 h after inoculation, wheat seedlings "Kanzler", 7 days
Outline: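 Wheat seedlings (cv. Kanzler) inoculated with brown rust spores and held 24 h at 90–95% humidity and 20–22°C, then sprayed to runoff with the emulsified compound the next day. Rust development on leaves scored after 7 days in greenhouse at 20–22°C and 65–70% relative humidity.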

[2] = test system: Septoria tritici; assay: Protective activity against Septoria foliar blotch disease of wheat caused by Septoria tritici; conditions: wheat seedlings "Riband", inoculated 24 h after spraying, 2 weeks
Method: The active compounds were prepared separately or jointly as a 10% strength emulsion in a mixture of 70% by weight of cyclohexanone, 20% by weight of Nekanil® LN (Lutensol® AP6, wetting agent having emulsifying and dispersing action based on ethoxylated alkylphenols) and 10% by weight of Wettol® EM (nonionic emulsifier based on ethoxylated castor oil) and diluted with water to the desired concentration.
Leaves of potted wheat seedlings of the cultivar “Riband” were sprayed to runoff point with an aqueous preparation of active compound which had been prepared from a stock solution made of 10% of active compound, 85% of cyclohexanone and 5% of emulsifier. 24 hours after the spray coating had dried on, they were inoculated with an aqueous spore suspension of Septoria tritici. The suspension contained 2.0×10^6 spores/ml. The test plants were then placed in a greenhouse at 18-22° C. and a relative atmospheric humidity of close to 100%. After 2 weeks, the extent of the development of the disease was determined visually in % infection of the entire leaf area.

[3] = test system: Pyrenophora teres; assay: Activity against net blotch of barley caused by Pyrenophora teres; conditions: barley seedlings "Igri", inoculated 24 h after spraying, 6 days
Outline: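 Potted barley seedlings (cv. Igri) were sprayed to runoff with aqueous compound preparation, then inoculated with P. teres spores 24 h after the spray dried. Plants were kept in a greenhouse at 20-24° C and 95-100% relative humidity, and disease was scored visually after 6 days as % infected leaf area.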

[4] = test system: Blumeria graminis forma specialis tritici; assay: Activity against mildew of wheat caused by Blumeria graminis forma specialis tritici; conditions: wheat seedlings "Kanzler", dusted with spores 24 h after spraying, 7 days
Outline: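 Compound, emulsified then diluted in water, sprayed to runoff onto leaves of potted wheat seedlings cv. Kanzler; inoculated with Blumeria graminis f. sp. tritici spores 24 h after the coating dried. Plants kept in greenhouse at 20-24° C., 60-90% relative humidity; mildew scored visually after 7 days as % infected leaf area.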

Structure (SMILES) | % infection of the leaves after application of an aqueous preparation comprising . . . ppm of active compound ([1]; 63 ppm) | % infection of the leaves after application of an aqueous preparation comprising . . . ppm of active compound ([1]; 250 ppm) | % infection of the leaves after application of an aqueous preparation comprising . . . ppm of active compound ([2]; 16 ppm) | % infection of the leaves after application of an aqueous preparation comprising . . . ppm of active compound ([2]; 63 ppm) | % infection of the leaves after application of an aqueous preparation comprising . . . ppm of active compound ([2]; 250 ppm) | % infection of the leaves after application of an aqueous preparation comprising . . . ppm of active compound ([3]; 16 ppm) | % infection of the leaves after application of an aqueous preparation comprising . . . ppm of active compound ([4]; 16 ppm) | % infection of the leaves after application of an aqueous preparation comprising . . . ppm of active compound ([4]; 63 ppm) | % infection of the leaves after application of an aqueous preparation comprising . . . ppm of active compound ([4]; 250 ppm) | % infection of the leaves after application of an aqueous preparation comprising . . . ppm of active compound ([3]; 63 ppm) | % infection of the leaves after application of an aqueous preparation comprising . . . ppm of active compound ([1]; 16 ppm) | % infection of the leaves after application of an aqueous preparation comprising . . . ppm of active compound ([3]; 250 ppm)
CC(C)C(C)Nc1c(-c2c(F)cccc2F)c(Cl)nc2ncnn12 (stereo not shown) [I.-5] | 10% | 10% | 15% | 15% | 15% | 20% | 40% | 40% | 20% |  |  | 
CC(Nc1c(-c2ccccc2Cl)c(Cl)nc2ncnn12)C(C)(C)C [comparison (S)-amine of I.-44a] |  | 100% | 100% | 100% | 100% | 100% | 100% | 100% | 100% | 30% |  | 
CC(C)[C@H](C)Nc1c(-c2c(F)cccc2F)c(Cl)nc2ncnn12 [comparison (S)-amine of I.-5] | 100% | 100% | 100% | 100% | 100% | 80% | 100% | 100% | 100% |  |  | 
CC(C)[C@H](C)Nc1c(-c2c(F)cc(F)cc2F)c(Cl)nc2ncnn12 [comparison (S)-amine of I.-14] | 5% |  | 90% | 70% | 70% | 40% | 100% | 80% | 80% |  | 100% | 
CC[C@@H](C)Nc1c(-c2c(F)cc(OC)cc2F)c(Cl)nc2ncnn12 [I.-16] | 0% |  |  | 70% | 70% |  | 40% | 40% | 20% |  | 7% | 
CC[C@H](C)Nc1c(-c2c(Cl)cccc2Cl)c(Cl)nc2ncnn12 [comparison (S)-amine of I.-7] |  |  | 90% | 90% | 90% | 100% |  |  | 100% | 100% | 100% | 100%
CCC(C)Nc1c(-c2c(F)cccc2F)c(Cl)nc2ncnn12 (stereo not shown) [I.-4] | 20% | 10% | 20% | 15% | 3% |  | 80% | 60% | 60% |  | 40% | 
CCC(C)Nc1c(-c2c(Cl)cccc2Cl)c(Cl)nc2ncnn12 (stereo not shown) [I.-7] |  |  | 70% | 30% | 15% | 80% |  |  | 60% | 30% | 40% | 15%
CC(C)C(C)Nc1c(-c2c(F)cc(F)cc2F)c(Cl)nc2ncnn12 (stereo not shown) [I.-14] | 0% |  | 15% | 15% | 15% | 3% | 30% | 30% | 20% |  | 0% | 
CC(C)[C@@H](C)Nc1c(-c2c(F)cccc2Cl)c(Cl)nc2ncnn12 [I.-2] | 5% | 5% | 0% | 0% | 0% |  |  | 40% | 40% |  | 15% | 
